{
  "source": "patent US20110251286A1",
  "about": "“Crystalline salts and/or co-crystals of O-desmethyltramadol” (GRUENENTHAL GmbH, priority 2010, published 2011)",
  "key": {"[1]": {"assay": "Dynamic vapor sorption (DVS): sorption and desorption of moisture", "format": "physicochemical", "protocol": "Investigations on the sorption and desorption of moisture (dynamic vapor sorption, DVS): DVS measurements were carried out on an apparatus of the type DVS 1000 from Porotec. The evaluation of the measurements was carried out using software from Surface Measurement Systems. At a temperature between 23° C. and 26° C., starting from a relative humidity of 50%, within 240 minutes the relative humidity first increased to 90% and then fell to 0%. This cycle was repeated a second time. The DVS charts shown are isothermal recordings (plots) of the change in the mass in % (change in mass—dry) as a function of the desired relative humidity in % (target RH). Correspondingly, the axes of the graphs are marked by ΔM [%] and RH [%]. The measurement curves of the first sorption are designated by 1-S, the subsequent first desorption by 1-D, the second sorption by 2-S and the second desorption by 2-D. Advantageously, mass changes between the sorption and desorption phase are as low as possible."}, "[2]": {"assay": "Release in artificial intestinal juice", "format": "physicochemical", "protocol": "Investigations on release were carried out in a Sotax AT7 smart release apparatus with UV measurement (Perkin Elmer photometer).\nA vessel with Wood apparatus was used (for intrinsic release).\nA pressing of 0.5 cm^2 surface area (diameter 8 mm) was produced with a force of 200 N using approximately 100 mg of active ingredient.\nRelease was carried out in a release medium, which is composed as described below: • Intestinal juice without pancreas powder, pH 6.8 (analogous to Ph. Eur.); 250.0 ml 6.8 g of potassium dihydrogenphosphate R+0.896 g of NaOH+water to 1000.0 ml.\nRelease was carried out in a release volume of in each case 500±5 ml at a temperature of the release medium of 37±1° C. with a stirring speed of 100±5 rpm.\nThe content determination was carried out by means of spectroscopic methods (UV spectroscopy, wavelength: 271 nm, cuvette: 10 mm). Sample taking was carried out manually.\nIn this release experiment, the individual compounds were placed in a permeable bag in an amount in each case calculated on 100 mg of the free base.\nThe results, expressed in percent of the substance released, are reproduced in the following tables. In this case, the compounds denote: HCl: hydrochloride; A: cinnamate; B: palmitate; C: decanoate; E: hemi-fumarate and F: hemi-sebacate."}, "[3]": {"assay": "Determination of equilibrium solubilities in aqueous solutions at various pHs", "details": "thermodynamic from solid", "protocol": "The equilibrium solubilities of the compounds investigated were determined in aqueous solutions at various pHs and the pH-dependent solubility profile and the solubilities at different pHs were compared here. In this case, the content determination was carried out by means of capillary electrophoresis."}},
  "data": [
    {"smiles": "CN(C)CC1CCCCC1(O)c1cccc(O)c1.CN(C)CC1CCCCC1(O)c1cccc(O)c1.O=C(O)CCCCCCCCC(=O)O", "note": "(centres unmarked) [hemi-sebacate]", "values": [
      {"measurement": "ΔM Desorption", "setting": "[1]; DVS 1st cycle, RH 0.0%", "result": 0.0000, "unit": "%"},
      {"measurement": "ΔM Desorption", "setting": "[1]; DVS 1st cycle, RH 10.0%", "result": 0.0235, "unit": "%"},
      {"measurement": "ΔM Desorption", "setting": "[1]; DVS 1st cycle, RH 20.0%", "result": 0.0308, "unit": "%"},
      {"measurement": "ΔM Desorption", "setting": "[1]; DVS 1st cycle, RH 30.0%", "result": 0.0323, "unit": "%"},
      {"measurement": "ΔM Desorption", "setting": "[1]; DVS 1st cycle, RH 40.0%", "result": 0.0338, "unit": "%"},
      {"measurement": "ΔM Desorption", "setting": "[1]; DVS 1st cycle, RH 50.0%", "result": 0.0323, "unit": "%"},
      {"measurement": "ΔM Hysteresis", "setting": "[1]; DVS 1st cycle, RH 50.0%", "result": "−0.0382", "unit": "%"},
      {"measurement": "ΔM Sorption", "setting": "[1]; DVS 1st cycle, RH 50.0%", "result": 0.0704, "unit": "%"},
      {"measurement": "ΔM Desorption", "setting": "[1]; DVS 1st cycle, RH 60.0%", "result": 0.0293, "unit": "%"},
      {"measurement": "ΔM Hysteresis", "setting": "[1]; DVS 1st cycle, RH 60.0%", "result": "−0.0396", "unit": "%"},
      {"measurement": "ΔM Sorption", "setting": "[1]; DVS 1st cycle, RH 60.0%", "result": 0.0690, "unit": "%"},
      {"measurement": "ΔM Desorption", "setting": "[1]; DVS 1st cycle, RH 70.0%", "result": 0.0220, "unit": "%"},
      {"measurement": "ΔM Hysteresis", "setting": "[1]; DVS 1st cycle, RH 70.0%", "result": "−0.0132", "unit": "%"},
      {"measurement": "ΔM Sorption", "setting": "[1]; DVS 1st cycle, RH 70.0%", "result": 0.0352, "unit": "%"},
      {"measurement": "ΔM Desorption", "setting": "[1]; DVS 1st cycle, RH 80.0%", "result": 0.0088, "unit": "%"},
      {"measurement": "ΔM Hysteresis", "setting": "[1]; DVS 1st cycle, RH 80.0%", "result": 0.0205, "unit": "%"},
      {"measurement": "ΔM Sorption", "setting": "[1]; DVS 1st cycle, RH 80.0%", "result": "−0.0117", "unit": "%"},
      {"measurement": "ΔM Desorption", "setting": "[1]; DVS 1st cycle, RH 90.0%", "result": "−0.0499", "unit": "%"},
      {"measurement": "ΔM Sorption", "setting": "[1]; DVS 1st cycle, RH 90.0%", "result": "−0.0499", "unit": "%"},
      {"measurement": "ΔM Desorption", "setting": "[1]; DVS 2nd cycle, RH 0.0%", "result": 0.1585, "unit": "%"},
      {"measurement": "ΔM Sorption", "setting": "[1]; DVS 2nd cycle, RH 0.0%", "result": 0.0000, "unit": "%"},
      {"measurement": "ΔM Desorption", "setting": "[1]; DVS 2nd cycle, RH 10.0%", "result": 0.1790, "unit": "%"},
      {"measurement": "ΔM Hysteresis", "setting": "[1]; DVS 2nd cycle, RH 10.0%", "result": 0.1438, "unit": "%"},
      {"measurement": "ΔM Sorption", "setting": "[1]; DVS 2nd cycle, RH 10.0%", "result": 0.0352, "unit": "%"},
      {"measurement": "ΔM Desorption", "setting": "[1]; DVS 2nd cycle, RH 20.0%", "result": 0.1834, "unit": "%"},
      {"measurement": "ΔM Hysteresis", "setting": "[1]; DVS 2nd cycle, RH 20.0%", "result": 0.1291, "unit": "%"},
      {"measurement": "ΔM Sorption", "setting": "[1]; DVS 2nd cycle, RH 20.0%", "result": 0.0543, "unit": "%"},
      {"measurement": "ΔM Desorption", "setting": "[1]; DVS 2nd cycle, RH 30.0%", "result": 0.1878, "unit": "%"},
      {"measurement": "ΔM Hysteresis", "setting": "[1]; DVS 2nd cycle, RH 30.0%", "result": 0.1174, "unit": "%"},
      {"measurement": "ΔM Sorption", "setting": "[1]; DVS 2nd cycle, RH 30.0%", "result": 0.0704, "unit": "%"},
      {"measurement": "ΔM Desorption", "setting": "[1]; DVS 2nd cycle, RH 40.0%", "result": 0.1922, "unit": "%"},
      {"measurement": "ΔM Hysteresis", "setting": "[1]; DVS 2nd cycle, RH 40.0%", "result": 0.1042, "unit": "%"},
      {"measurement": "ΔM Sorption", "setting": "[1]; DVS 2nd cycle, RH 40.0%", "result": 0.0880, "unit": "%"},
      {"measurement": "ΔM Desorption", "setting": "[1]; DVS 2nd cycle, RH 50.0%", "result": 0.1849, "unit": "%"},
      {"measurement": "ΔM Hysteresis", "setting": "[1]; DVS 2nd cycle, RH 50.0%", "result": 0.0880, "unit": "%"},
      {"measurement": "ΔM Sorption", "setting": "[1]; DVS 2nd cycle, RH 50.0%", "result": 0.0968, "unit": "%"},
      {"measurement": "ΔM Desorption", "setting": "[1]; DVS 2nd cycle, RH 60.0%", "result": 0.1761, "unit": "%"},
      {"measurement": "ΔM Hysteresis", "setting": "[1]; DVS 2nd cycle, RH 60.0%", "result": 0.0704, "unit": "%"},
      {"measurement": "ΔM Sorption", "setting": "[1]; DVS 2nd cycle, RH 60.0%", "result": 0.1057, "unit": "%"},
      {"measurement": "ΔM Desorption", "setting": "[1]; DVS 2nd cycle, RH 70.0%", "result": 0.1629, "unit": "%"},
      {"measurement": "ΔM Hysteresis", "setting": "[1]; DVS 2nd cycle, RH 70.0%", "result": 0.0719, "unit": "%"},
      {"measurement": "ΔM Sorption", "setting": "[1]; DVS 2nd cycle, RH 70.0%", "result": 0.0910, "unit": "%"},
      {"measurement": "ΔM Desorption", "setting": "[1]; DVS 2nd cycle, RH 80.0%", "result": 0.1350, "unit": "%"},
      {"measurement": "ΔM Hysteresis", "setting": "[1]; DVS 2nd cycle, RH 80.0%", "result": 0.0616, "unit": "%"},
      {"measurement": "ΔM Sorption", "setting": "[1]; DVS 2nd cycle, RH 80.0%", "result": 0.0734, "unit": "%"},
      {"measurement": "ΔM Desorption", "setting": "[1]; DVS 2nd cycle, RH 90.0%", "result": 0.0484, "unit": "%"},
      {"measurement": "ΔM Sorption", "setting": "[1]; DVS 2nd cycle, RH 90.0%", "result": 0.0484, "unit": "%"},
      {"measurement": "ΔM Sorption", "setting": "[1]; DVS 3rd cycle (partial), RH 0.0%", "result": 0.1585, "unit": "%"},
      {"measurement": "ΔM Sorption", "setting": "[1]; DVS 3rd cycle (partial), RH 10.0%", "result": 0.1937, "unit": "%"},
      {"measurement": "ΔM Sorption", "setting": "[1]; DVS 3rd cycle (partial), RH 20.0%", "result": 0.2113, "unit": "%"},
      {"measurement": "ΔM Sorption", "setting": "[1]; DVS 3rd cycle (partial), RH 30.0%", "result": 0.2245, "unit": "%"},
      {"measurement": "ΔM Sorption", "setting": "[1]; DVS 3rd cycle (partial), RH 40.0%", "result": 0.2377, "unit": "%"},
      {"measurement": "ΔM Sorption", "setting": "[1]; DVS 3rd cycle (partial), RH 50.0%", "result": 0.2465, "unit": "%"},
      {"measurement": "release rate compared to the hydrochloride salt", "setting": "[2]; in artificial intestinal juice", "result": "decreased release rates compared to the hydrochloride salt"}
    ]},
    {"smiles": "CN(C)C[C@H]1CCCC[C@]1(O)c1cccc(O)c1.Cl", "note": "[hydrochloride, (+)-(1R,2R)-3-[2-(dimethylamino)methyl-1-hydroxycyclohexyl]phenol hydrochloride]", "values": [
      {"measurement": "substance passed into the artificial intestinal fluid", "setting": "[2]; after two to 4 minutes, artificial intestinal juice pH 6.8, 37 °C", "result": "~100", "unit": "%"},
      {"measurement": "solubility thermodynamic", "setting": "[3]; aqueous with cosolvent or surfactant or cyclodextrin", "result": 1090, "unit": "mM"},
      {"measurement": "solubility thermodynamic", "setting": "[3]; pH 1.4, simulated gastric fluid", "result": 582, "unit": "mM"},
      {"measurement": "solubility thermodynamic", "setting": "[3]; pH 4.3, aqueous buffer", "result": 666, "unit": "mM"},
      {"measurement": "solubility thermodynamic", "setting": "[3]; pH 6.8, aqueous buffer", "result": 698, "unit": "mM"},
      {"measurement": "solubility thermodynamic", "setting": "[3]; pH 7.4, aqueous buffer", "result": 867, "unit": "mM"},
      {"measurement": "solubility thermodynamic", "setting": "[3]; pH 11, aqueous buffer", "result": 979, "unit": "mM"},
      {"measurement": "solubility thermodynamic", "setting": "[3]; water", "result": 983, "unit": "mM"}
    ]}
  ]
}
